We go through 1 compound from patent publication US11331273B2, “Film-coated tablet having high chemical stability of active ingredient” (Intercept Pharmaceuticals, Inc., priority 2016, dated 2022).

Where “and” joins values, the source holds several entries; their conditions need not be identical. Equal values may be shown once.

This data set is described as follows: Storage stability of obeticholic acid (unmodified) in test tubes: dimer quantified per Test Example 2. The data set is classed as physicochemical. As to the method:
Obeticholic acid (unmodified) was weighed out in amounts of 5 mg into test tubes to serve as individual samples.
Test Lubes containing the obeticholic acid (unmodified) prepared in Example 1 were stored under the following conditions. The amounts of obeticholic acid dimer generated before (initial) and after storage were measured in accordance with Test Example 2. • Four weeks (4 W) at 50° C. and 85% RH (open) • Four weeks (4 W) at 60° C. (closed)
The amount of obeticholic acid dimer generated was measured in the same manner described in Test Example 1, with the exception that the sample solution was prepared as follows.
Acetonitrile/water (9/1) was added in an amount of exactly 10 mL to test tubes that had been retrieved from storage, and the contents were ultrasounded to extract the obeticholic acid. Following centrifugation (10 min at 3000 rpm), the supernatant was made into samples for HPLC assay (500 μg/mL obeticholic acid).

As for `CC[C@H]1[C@@H](O)[C@@H]2[C@H](CC[C@]3(C)[C@@H]([C@H](C)CCC(=O)O)CC[C@@H]23)[C@@]2(C)CC[C@@H](O)C[C@@H]12` [Comparative Example 3, 3α,7α-dihydroxy-6α-ethyl-5β-cholan-24-oic acid], the “Amount of obeticholic acid dimer production (%)” value runs as follows: (50° C., 85% RH, open, 4 W) 0.83%; (60° C., closed, 4 W) 0.81%; (Initial) 0.04%. Further, the “Increase (%) in obeticholic acid dimerization from initial product” value is 0.79% (50° C., 85% RH, open, 4 W); 0.77% and 0.78% (60° C., closed, 4 W).
